Assay results taken from the supplement of paper PMC13380429.

Legend:
Settings in all cases: 72 h
U2OS [1] = assay: relative viability EC50 (midpoint between 100% and the lowest measured viability); higher = less toxic
Calu-3 [2] = assay: as above
HepG2 [3] = assay: as above
Vero E6 [4] = assay: as above
Caco-2 [5] = assay: as above
U2OS [6] = assay: cell viability relative to DMSO; higher = less toxic
Calu-3 [7] = assay: as above
HepG2 [8] = assay: as above
Vero E6 [9] = assay: as above
Caco-2 [10] = assay: as above
U2OS [11] = assay: drug sensitivity score (DSS) for viability; higher = more toxic; extreme values may be limits of the assay
Calu-3 [12] = assay: as above
HepG2 [13] = assay: as above
Vero E6 [14] = assay: as above
Caco-2 [15] = assay: as above

SMILES | relative viability EC50 (U2OS [1]) [µM] | relative viability EC50 (Calu-3 [2]) [µM] | relative viability EC50 (HepG2 [3]) [µM] | relative viability EC50 (Vero E6 [4]) [µM] | relative viability EC50 (Caco-2 [5]) [µM] | cell viability (U2OS [6]; 1 nM) [%] | cell viability (U2OS [6]; 10 nM) [%] | cell viability (U2OS [6]; 100 nM) [%] | cell viability (U2OS [6]; 1000 nM) [%] | cell viability (U2OS [6]; 10000 nM) [%] | cell viability (Calu-3 [7]; 1 nM) [%] | cell viability (Calu-3 [7]; 10 nM) [%] | cell viability (Calu-3 [7]; 100 nM) [%] | cell viability (Calu-3 [7]; 1000 nM) [%] | cell viability (Calu-3 [7]; 10000 nM) [%] | cell viability (HepG2 [8]; 1 nM) [%] | cell viability (HepG2 [8]; 10 nM) [%] | cell viability (HepG2 [8]; 100 nM) [%] | cell viability (HepG2 [8]; 1000 nM) [%] | cell viability (HepG2 [8]; 10000 nM) [%] | cell viability (Vero E6 [9]; 1 nM) [%] | cell viability (Vero E6 [9]; 10 nM) [%] | cell viability (Vero E6 [9]; 100 nM) [%] | cell viability (Vero E6 [9]; 1000 nM) [%] | cell viability (Vero E6 [9]; 10000 nM) [%] | cell viability (Caco-2 [10]; 1 nM) [%] | cell viability (Caco-2 [10]; 10 nM) [%] | cell viability (Caco-2 [10]; 100 nM) [%] | cell viability (Caco-2 [10]; 1000 nM) [%] | cell viability (Caco-2 [10]; 10000 nM) [%] | drug sensitivity score (U2OS [11]) | drug sensitivity score (Calu-3 [12]) | drug sensitivity score (HepG2 [13]) | drug sensitivity score (Vero E6 [14]) | drug sensitivity score (Caco-2 [15])
NC(=O)CC[C@H](N)C(=O)O [L-glutamine] | > 10 | > 10 | > 10 | > 10 | > 10 | 102 | 102 | 94.4 | 99.1 | 93 | 91.5 | 91.7 | 96.9 | 95 | 91.2 | 92.6 | 102 | 104 | 91.6 | 100 | 100 | 100 | 95 | 93 | 92.7 | 93.2 | 90.8 | 100 | 96.1 | 101 | 0 | 0 | 0 | 0 | 0
Cc1cccc(C)c1OCC(=O)N[C@@H](Cc1ccccc1)[C@@H](O)C[C@H](Cc1ccccc1)NC(=O)[C@H](C(C)C)N1CCCNC1=O [Lopinavir] | > 10 | > 10 | > 10 | > 10 | > 10 | 99.5 | 95.2 | 103 | 94.1 | 96.5 | 95.4 | 84.9 | 92.7 | 93.9 | 89.2 | 101 | 87.1 | 103 | 105 | 95.4 | 93.3 | 100 | 100 | 100 | 104 | 95 | 101 | 100 | 101 | 83.7 | 0 | 0 | 0 | 0 | 0.3
O=C(O)CC[C@H]1CC[C@@](c2cc(F)ccc2F)(S(=O)(=O)c2ccc(Cl)cc2)CC1 [MK-0752] | > 10 | > 10 | > 10 | > 10 | > 10 | 94.9 | 105 | 96 | 102 | 97.9 | 96.3 | 96.3 | 100 | 101 | 97.8 | 100 | 96.1 | 98.9 | 92.6 | 108 | 96 | 99.7 | 94.5 | 95.5 | 103 | 96.5 | 106 | 98.2 | 99.2 | 99.5 | 0 | 0 | 0 | 0 | 0
COc1ccc(CNCc2cccc3ccccc23)cc1 [ML133] | > 10 | > 10 | > 10 | > 10 | > 10 | 104 | 94.9 | 100 | 98.9 | 97.5 | 101 | 101 | 102 | 104 | 94.6 | 97.8 | 108 | 101 | 110 | 112 | 91.2 | 100 | 94.1 | 99 | 101 | 92.5 | 95.6 | 98.5 | 99.9 | 88.3 | 0 | 0 | 0 | 0 | 0
CCCC(=O)Nc1cccc(NC(=O)c2ccccc2Br)c1 [ML161] | > 10 | > 10 | > 10 | > 10 | > 10 | 95.3 | 97.7 | 95.8 | 98.8 | 94.2 | 95.4 | 101 | 89.2 | 101 | 105 | 91.6 | 98 | 94.9 | 94.2 | 103 | 100 | 96.1 | 103 | 98.9 | 97.7 | 93.6 | 95.5 | 89.6 | 96.6 | 94 | 0 | 0 | 0 | 0 | 0
CC(=O)N[C@H]1[C@@H](O)[C@H](O)[C@@H](CO)O[C@@H]1O [N-acetylmannosamine] | > 10 | > 10 | > 10 | > 10 | > 10 | 95.6 | 101 | 105 | 103 | 105 | 106 | 100 | 94.7 | 102 | 111 | 108 | 96.7 | 110 | 105 | 100 | 97 | 95.9 | 92.1 | 92.8 | 108 | 102 | 99.6 | 100 | 107 | 104 | 0 | 0 | 0 | 0 | 0
O[C@@H](C[C@H]1c2ccccc2-c2cncn21)C1CCCCC1 [NLG919] | > 10 | > 10 | > 10 | > 10 | > 10 | 93.1 | 93 | 94 | 96.7 | 90.7 | 106 | 111 | 92.7 | 105 | 85.6 | 108 | 95.9 | 102 | 93.5 | 94.1 | 97.3 | 98.5 | 93.3 | 89.8 | 84.2 | 97.6 | 97 | 102 | 95.8 | 86.3 | 0 | 0.1 | 0 | 0.7 | 0.4
CC(C)[C@H]1c2ccc(F)cc2CC[C@@]1(CCN(C)CCCc1nc2ccccc2[nH]1)OC(=O)C1CC1 [NNC-55-0396] | 2.96 | 3.14 | 2.93 | 2.29 | 2.95 | 98.9 | 99.1 | 94.4 | 97.2 | 2.8 | 106 | 105 | 100 | 99.7 | 2.2 | 109 | 104 | 98.7 | 96.8 | 0 | 95.2 | 96.1 | 93.5 | 89.4 | -0.1 | 85.5 | 102 | 93.6 | 97.2 | 4.5 | 5.8 | 5.5 | 6 | 7.3 | 5.7
COc1ccc(COc2ccc(CC#N)cc2)cc1 [O4I1] | > 10 | > 10 | > 10 | > 10 | > 10 | 102 | 106 | 96.2 | 104 | 95.4 | 104 | 93.3 | 103 | 89.4 | 102 | 100 | 97 | 98.6 | 95.4 | 94.7 | 100 | 99.4 | 99.1 | 95 | 87.4 | 94.7 | 93.9 | 96.3 | 92.9 | 92.2 | 0 | 0 | 0 | 0.2 | 0
O=C(CCN1CCN(C(=O)OCc2cc(Cl)cc(Cl)c2)CC1)c1ccc2[nH]c(=O)oc2c1 [PF-8380] | > 10 | > 10 | > 10 | > 10 | > 10 | 98.5 | 101 | 97.9 | 95.6 | 101 | 97.5 | 101 | 94.5 | 99.5 | 113 | 99.6 | 96.3 | 93.4 | 105 | 97.3 | 106 | 110 | 104 | 103 | 92.7 | 94.8 | 101 | 91.2 | 98.1 | 94.9 | 0 | 0 | 0 | 0 | 0
CC(C)OC(=O)[C@H](C)N[P@@](=O)(OC[C@H]1O[C@@H](n2ccc(=O)[nH]c2=O)[C@](C)(F)[C@@H]1O)Oc1ccccc1 [PSI-7976] | > 10 | > 10 | > 10 | > 10 | > 10 | 98.2 | 93.6 | 101 | 99 | 96.8 | 104 | 85.4 | 96.7 | 93.3 | 94.2 | 89.5 | 103 | 92.6 | 109 | 113 | 95.2 | 101 | 91.4 | 99 | 108 | 105 | 88.7 | 103 | 90.2 | 101 | 0 | 0 | 0 | 0 | 0
COc1cc(CN2CCN(c3ccc(F)cc3)CC2)cc(OC)c1OC [V-51] | > 10 | > 10 | > 10 | > 10 | > 10 | 100 | 103 | 94.8 | 98.6 | 102 | 81.8 | 95.7 | 106 | 105 | 105 | 100 | 98.1 | 93.2 | 100 | 98.8 | 95.9 | 96.5 | 100 | 98.3 | 106 | 94.8 | 94.4 | 93.6 | 83.5 | 97.8 | 0 | 0 | 0 | 0 | 0
CO[C@H]1CC[C@H](N(c2cc(C3=CCCCC3)sc2C(=O)O)C(=O)[C@H]2CC[C@H](C)CC2)CC1 [VCH-916] | > 10 | > 10 | > 10 | > 10 | > 10 | 96.2 | 98.7 | 98.6 | 98.6 | 101 | 90.8 | 110 | 107 | 97.5 | 104 | 103 | 92.8 | 110 | 110 | 114 | 96.9 | 95.7 | 98.8 | 103 | 110 | 92.2 | 93.4 | 105 | 95.5 | 105 | 0 | 0 | 0 | 0 | 0
CCC(=O)NO [ZAMI-633] | > 10 | > 10 | > 10 | > 10 | > 10 | 97.5 | 97.9 | 92.8 | 93.3 | 105 | 101 | 102 | 94.2 | 93.6 | 97.2 | 110 | 97 | 104 | 90.6 | 85.1 | 110 | 95 | 109 | 97.1 | 89 | 100 | 96.7 | 93.4 | 96.8 | 127 | 0 | 0 | 0.9 | 0.1 | 0
